Source: patent US6737383B1, “Herbicidal oxadiazolidines” (priority 1999, dated 2004)

Columns and labels:
rape = experiment: Test B pre/postemergence rape; format: in vivo, Brassica napus
Summary of the method: (§1)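 Test chemicals in a non-phytotoxic solvent mixture with surfactant were sprayed preemergence onto planted seeds and postemergence onto plants 2 to 18 cm tall (1- to 4-leaf stage). After twelve to sixteen days in a greenhouse, injury was visually rated against untreated controls from 0 (no effect) to 10 (complete control).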

bamyardgrass = experiment: Test B flood test barnyardgrass; format: in vivo, Echinochloa crus-galli
Summary of the method: (§2)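 Read-out is a visual response score from 0 (no effect) to 10 (complete control), assigned by comparison with untreated controls. Treatment was applied at the 2-leaf stage, and plants stayed in the greenhouse for twelve to sixteen days before scoring.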

surinam grass = experiment: Test B pre/postemergence surinam grass; format: in vivo, Brachiaria decumbens
Summary of the method: as §1

pigweed = experiment: Test B pre/postemergence pigweed; format: in vivo, Amaranthus retroflexus
Summary of the method: as §1

wild oat = experiment: Test B pre/postemergence wild oat; format: in vivo, Avena fatua
Summary of the method: as §1

smallflower flatsedge = experiment: Test B flood test smallflower flatsedge; format: in vivo, Cyperus difformis
Summary of the method: as §2

velvetleaf = experiment: Test B pre/postemergence velvetleaf; format: in vivo, Abutilon theophrasti
Summary of the method: as §1

morningglory = experiment: Test B pre/postemergence morningglory; format: in vivo, Ipomoea hederacea
Summary of the method: as §1

corn = experiment: Test B pre/postemergence corn; format: in vivo, Zea mays
Summary of the method: as §1

giant foxtail = experiment: Test B pre/postemergence giant foxtail; format: in vivo, Setaria faberii
Summary of the method: as §1

cocklebur = experiment: Test B pre/postemergence cocklebur; format: in vivo, Xanthium strumarium
Summary of the method: as §1

blackgrass = experiment: Test B pre/postemergence blackgrass; format: in vivo, Alopecurus myosuroides
Summary of the method: as §1

soybean = experiment: Test B pre/postemergence soybean; format: in vivo, Glycine max
Summary of the method: as §1

sugar beet = experiment: Test B pre/postemergence sugar beet; format: in vivo, Beta vulgaris
Summary of the method: as §1

purple nutsedge = experiment: Test B pre/postemergence purple nutsedge; format: in vivo, Cyperus rotundus
Summary of the method: as §1

crabgrass = experiment: Test B pre/postemergence crabgrass; format: in vivo, Digitaria sanguinalis
Summary of the method: as §1

[1] = Preemergence, Rate 62 g/ha, scale of 0 to 10 where 0 is no effect and 10 is complete control
[2] = Preemergence, Rate 250 g/ha, scale of 0 to 10 where 0 is no effect and 10 is complete control
[3] = Preemergence, Rate 500 g/ha, scale of 0 to 10 where 0 is no effect and 10 is complete control
[4] = Rate 62 g/ha, Postemergence, scale of 0 to 10 where 0 is no effect and 10 is complete control
[5] = Rate 125 g/ha, Preemergence, scale of 0 to 10 where 0 is no effect and 10 is complete control
[6] = Rate 500 g/ha, Postemergence, scale 0 to 10, 0 no effect, 10 complete control
[7] = Rate 62 g/ha, headed Pre-emergence (flood test species), scale 0 to 10 (0 no effect, 10 complete control)
[8] = Rate 125 g/ha, Pre-emergence, flood test species, scale 0 to 10 where 0 is no effect and 10 is complete control
[9] = Rate 250 g/ha, Pre-emergence, flood-test species, scale 0 to 10, 0 is no effect, 10 is complete control
[10] = Rate 500 g/ha, Pre-emergence, flood test species, scale 0 to 10 (0 no effect, 10 complete control)
[11] = Rate 125 g/ha, Postemergence, scale 0 to 10

## CC(C)N(C(=O)n1oc(=O)n([C@H](C)c2ccccc2)c1=O)c1ccc(F)cc1F [Compound 238]
rape; [1]
  Rape plant response rating: 0
rape; [2]
  Rape plant response rating: 0
rape; [3]
  Plant response rating, Rape: 10
rape; [4]
  Rape plant response rating: 0
rape; [5]
  Rape plant response rating: 0
rape; Rate 250 g/ha, Postemergence
  Plant response rating (0 to 10; 0 is no effect, 10 is complete control), Rape: 4
rape; [6]
  Rape plant response rating: 6
bamyardgrass; [7]
  Barnyardgrass plant response rating: 0
bamyardgrass; [8]
  Barnyardgrass plant response rating: 0
bamyardgrass; [9]
  Barnyardgrass plant response rating: 0
bamyardgrass; [10]
  Barnyardgrass plant response rating: 0
Surinam grass; [1]
  B. signalgrass plant response rating: 0
Surinam grass; Preemergence, Rate 250 g/ha, scale 0 to 10, 0 is no effect, 10 is complete control
  B. signalgrass plant response rating: 0
Surinam grass; [3]
  Plant response rating, B. signalgrass: 0
Surinam grass; [4]
  B. signalgrass plant response rating: 0
Surinam grass; Rate 125 g/ha, Postemergence, scale 0 (no effect) to 10 (complete control)
  B. signalgrass plant response rating: 0
Surinam grass; [5]
  B. signalgrass plant response rating: 0
Surinam grass; Rate 250 g/ha, Postemergence
  Plant response rating (0 to 10; 0 is no effect, 10 is complete control), B. signalgrass: 0
Surinam grass; [6]
  B. signalgrass plant response rating: 0
pigweed; [1]
  Redroot pigweed plant response rating: 0
pigweed; [2]
  Redroot pigweed plant response rating: 0
pigweed; [3]
  Plant response rating, Redroot pigweed: 9
pigweed; [4]
  Redroot pigweed plant response rating: 0
pigweed; [5]
  Redroot pigweed plant response rating: 0
pigweed; Rate 250 g/ha, Postemergence
  Plant response rating (0 to 10; 0 is no effect, 10 is complete control), Redroot pigweed: 0
pigweed; [6]
  Redroot pigweed plant response rating: 5
Wild oat; [1]
  Wild oats plant response rating: 0
Wild oat; [2]
  Wild oats plant response rating: 0
Wild oat; [3]
  Plant response rating, Wild oats: 3
Wild oat; [4]
  Wild oats plant response rating: 0
Wild oat; [5]
  Wild oats plant response rating: 0
Wild oat; [6]
  Wild oats plant response rating: 0
Smallflower flatsedge; [7]
  S. Flatsedge plant response rating: 0
Smallflower flatsedge; [8]
  S. Flatsedge plant response rating: 0
Smallflower flatsedge; [9]
  S. Flatsedge plant response rating: 0
Smallflower flatsedge; [10]
  S. Flatsedge plant response rating: 0
velvetleaf; [1]
  Velvetleaf plant response rating: 0
velvetleaf; [2]
  Velvetleaf plant response rating: 0
velvetleaf; [3]
  Plant response rating, Velvetleaf: 3
velvetleaf; [4]
  Velvetleaf plant response rating: 1
velvetleaf; [5]
  Velvetleaf plant response rating: 0
velvetleaf; [6]
  Velvetleaf plant response rating: 2
morningglory; [1]
  Morningglory plant response rating: 0
morningglory; [2]
  Morningglory plant response rating: 0
morningglory; [3]
  Plant response rating, Morningglory: 3
morningglory; [4]
  Morningglory plant response rating: 2
morningglory; [5]
  Morningglory plant response rating: 0
morningglory; Rate 250 g/ha, Postemergence
  Plant response rating (0 to 10; 0 is no effect, 10 is complete control), Morningglory: 3
morningglory; [6]
  Morningglory plant response rating: 5
corn; [1]
  Corn plant response rating: 0
corn; [2]
  Corn plant response rating: 0
corn; [3]
  Plant response rating, Corn: 0
corn; [4]
  Corn plant response rating: 0
corn; [11]
  Corn plant response rating: 0
corn; [5]
  Corn plant response rating: 0
corn; Rate 250 g/ha, Postemergence
  Plant response rating (0 to 10; 0 is no effect, 10 is complete control), Corn: 0
corn; [6]
  Corn plant response rating: 0
Giant foxtail; [1]
  Giant foxtail plant response rating: 5
Giant foxtail; [2]
  Giant foxtail plant response rating: 10
Giant foxtail; [3]
  Plant response rating, Giant foxtail: 10
Giant foxtail; [4]
  Giant foxtail plant response rating: 0
Giant foxtail; [5]
  Giant foxtail plant response rating: 6
Giant foxtail; Rate 250 g/ha, Postemergence
  Plant response rating (0 to 10; 0 is no effect, 10 is complete control), Giant foxtail: 0
Giant foxtail; [6]
  Giant foxtail plant response rating: 2
cocklebur; [1]
  Cocklebur plant response rating: 0
cocklebur; [2]
  Cocklebur plant response rating: 0
cocklebur; [4]
  Cocklebur plant response rating: 0
cocklebur; [11]
  Cocklebur plant response rating: 0
cocklebur; [5]
  Cocklebur plant response rating: 0
cocklebur; Rate 250 g/ha, Postemergence
  Plant response rating (0 to 10; 0 is no effect, 10 is complete control), Cocklebur: 0
cocklebur; [6]
  Cocklebur plant response rating: 0
blackgrass; [1]
  Blackgrass plant response rating: 0
blackgrass; [2]
  Blackgrass plant response rating: 0
blackgrass; [3]
  Plant response rating, Blackgrass: 0
blackgrass; [4]
  Blackgrass plant response rating: 0
blackgrass; [11]
  Blackgrass plant response rating: 0
blackgrass; [5]
  Blackgrass plant response rating: 0
blackgrass; Rate 250 g/ha, Postemergence
  Plant response rating (0 to 10; 0 is no effect, 10 is complete control), Blackgrass: 0
blackgrass; [6]
  Blackgrass plant response rating: 5
soybean; [1]
  Soybean plant response rating: 0
soybean; [2]
  Soybean plant response rating: 0
soybean; [3]
  Plant response rating, Soybean: 0
soybean; [4]
  Soybean plant response rating: 1
soybean; [5]
  Soybean plant response rating: 0
soybean; [6]
  Soybean plant response rating: 2
Sugar beet; [1]
  Sugarbeets plant response rating: 0
Sugar beet; [2]
  Sugarbeets plant response rating: 3
Sugar beet; [3]
  Plant response rating, Sugarbeets: 6
Sugar beet; [4]
  Sugarbeets plant response rating: 0
Sugar beet; [5]
  Sugarbeets plant response rating: 0
Sugar beet; [6]
  Sugarbeets plant response rating: 0
Purple nutsedge; [1]
  Nutsedge plant response rating: 0
Purple nutsedge; [2]
  Nutsedge plant response rating: 0
Purple nutsedge; [4]
  Nutsedge plant response rating: 0
Purple nutsedge; [5]
  Nutsedge plant response rating: 0
Purple nutsedge; Rate 250 g/ha, Postemergence
  Plant response rating (0 to 10; 0 is no effect, 10 is complete control), Nutsedge: 0
Purple nutsedge; [6]
  Nutsedge plant response rating: 0
crabgrass; [1]
  Crabgrass plant response rating: 2
crabgrass; [2]
  Crabgrass plant response rating: 10
crabgrass; [3]
  Plant response rating, Crabgrass: 10
crabgrass; [4]
  Crabgrass plant response rating: 0
crabgrass; [5]
  Crabgrass plant response rating: 6
crabgrass; Rate 250 g/ha, Postemergence
  Plant response rating (0 to 10; 0 is no effect, 10 is complete control), Crabgrass: 2
crabgrass; [6]
  Crabgrass plant response rating: 5
